In US4521422A, “Aryl and heteroaryl[7-(aryl and heteroaryl)pyrazolo[1,5-a]pyrimidin-3-yl]methanones” (American Cyanamid Company, priority 1984, dated 1985):

What was measured:
[1] = tested on: Clonic Seizures Caused by Pentylenetetrazole in Rats; assay: Protection against clonic seizures caused by pentylenetetrazole in rats; assay type: in vivo; settings: Rattus norvegicus; dose 25.0 mg/kg, oral or i.p.; pentylenetetrazole 23 mg/kg i.v. at 30 or 60 min; read-out: % of Rats Protected
Outline: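 Rats (at least 4 per group) given single or graded oral or intraperitoneal doses in starch/PEG/Polysorbate 80 vehicle. After 30 or 60 min, pentylenetetrazole 23 mg/kg i.v. was given, a dose expected to induce clonic seizures in 99% of unprotected rats. Protection from convulsions was scored.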

[2] = tested on: Nonconditioned Passive Avoidance in Rats; assay: Nonconditioned passive avoidance (conflict) test in rats; assay type: in vivo, rat (Wistar); parameters: key: Active: considered active if the number of shocks received by the test group is significantly higher than the control group by the Mann-Witney U test; settings: oral or i.p.
Procedure: Another test which has been used to assess anti-anxiety effects is a nonconditioned passive avoidance procedure described by [J. R. Vogel, B. Beer and D. E. Clody, "A Simple and Reliable Conflict Procedure for Testing Anti-Anxiety Agents", Psychopharmacologia, 21, 1-7 (1971)]. A conflict situation is induced in rats by a modification of this method.
Groups of 6 naive, Wistar strain rats, weighing 200-240 g each were deprived of water for 48 hours and food for 24 hours. The test compounds were administered in single or graded, oral or intraperitoneal doses, suspended in a 2% starch vehicle containing 0.5% v/v polyethylene glycol and one drop of polysorbate 80. Control animals received the vehicle alone. At 30 to 60 minutes each rat was placed in an individual plexiglass chamber. Water was available ad libitum from a tap located in the rear of the chamber. A 0.7 milliampere DC shocking current was established between the stainless steel grid floor and the tap. After 20 licks of non-shocked drinking, a shock was delivered for 2 seconds and then further shocks were delivered on a ratio of one shock for 2 seconds for every 20 licks. This was continued for a total of 3 minutes. The number of shocks taken by each rat during the 3 minute interval was recorded and compared to a control group. […]

[3] = tested on: Brain-Specific Receptors of Rats; assay: Inhibition of the binding of 3H-benzodiazepine to brain-specific receptors of rats; parameters: species or system rat (Wistar); settings: 3H-diazepam 1.5 nM or 3H-flunitrazepam 1.0 nM; rat cortex P2 fraction; test concentration not given
[4] = tested on: Ethanol Induced Narcosis in Rats; assay: Effects on the duration of ethanol induced narcosis in rats; assay type: in vivo; settings: Rattus norvegicus; lowest dose causing significant (p≤0.05) increase in duration of narcosis; oral, 60 min before 3.2 g/kg i.p. ethanol; read-out: MED
Procedure: The sedative-hypnotic properties of the novel compounds of the instant invention have been established by their effect on the duration of ethanol induced narcosis in rats as a measurement of sedation. Groups of at least 8 rats were administered graded oral doses of the test compounds or vehicle 60 minutes prior to intraperitoneal treatment with 3.2 g/kg ethanol. Rats were then observed continuously for 180 minutes for the incidence and duration of ethanol induced narcosis. […] The duration of narcosis was the total time the rat remained in a supine position. The MED [lowest dose necessary to cause a significant (p≤0.05, two-tailed Student's t test) increase in the duration of ethanol induced narcosis in rats] of representative compounds of this invention are shown in Table IV. Test compounds were dissolved or suspended in a 2% aqueous starch suspension containing 5% polyethyleneglycol 400 and a drop of Tween®80; ethanol (95%) was adjusted to final concentration (V:V) with 0.85% saline. All treatments were administered in a constant volume of 5 ml/kg.

[5] = tested on: Locomotor Activity in Rats; assay: Effects on locomotor activity in rats; assay type: in vivo; settings: Rattus norvegicus, 1 h; dose causing 50% decrease in mean activity counts vs vehicle; oral, 60 min; read-out: MDD50
Procedure: Groups of 6 rats were treated orally with vehicle (5 ml/kg) or graded doses of the test compounds. Sixty minutes later, individual rats were placed in Actophotometers and locomotor activity was measured for 5 minutes after a brief (30 sec.) habituation period. Motor Activity Counts (number of crossings of the photo cells) were recorded for each rat, and mean activity counts were calculated for each treatment group. The dose causing a 50% decrease in mean activity counts compared with the vehicle group (MDD50) was calculated from a linear regression equation.

[6] = tested on: Ability of Rats to Remain on an Inclined Screen; assay: Effect on ability of rats to remain on an inclined screen; assay type: in vivo; settings: Rattus norvegicus, 65 min; dose necessary to cause 50% of animals to fall off; oral; 60° screen, 65 min after dosing
Procedure: The first test measures the effect of representative compounds on the ability of rats to remain on an inclined screen. Groups of at least 6 rats were treated orally with graded doses of test compounds or vehicle and placed on a wire mesh screen (inclined at an angle of 60° from a horizontal level) 65 minutes later. The number of rats falling off the screen within 30 minutes was recorded. The ED50 (dose necessary to cause 50% of the animals tested to fall off) was calculated according to the linear arc-sine transformation method of Finney, D. J. Statistical Methods in Biological Assay, 2nd Ed., Hafner, N. Y., 1964, pp. 454 ff. Compounds were dissolved or suspended in a 2% aqueous starch suspension containing 5% polyethylene glycol 400 and a drop of polysorbate 80, and administered in a constant volume of 5 ml/kg.

Row | Structure (SMILES) | responders at 25 mg/kg [1] | Result (nonconditioned passive avoidance) ([2]; dose 25.0 mg/kg) | % Inhibition [3] | minimal effective dose [4] | ED50 [5] | ED50 [6] | Result (nonconditioned passive avoidance) ([2]; dose 12.5 mg/kg)
1 | O=C(c1ccccc1Cl)c1cnn2c(-c3cccnc3)ccnc12 [(2-chlorophenyl)[7-(3-pyridinyl)pyrazolo[1,5-a]pyrimidin-3-yl]methanone] | 100% | Active | 24% | 4 mg/kg | – | – | –
2 | O=C(c1ccccn1)c1cnn2c(-c3ccncc3)ccnc12 [2-pyridinyl[7-(4-pyridinyl)pyrazolo[1,5-a]pyrimidin-3-yl]methanone] | 100% | Active | 29% | – | 101 mg/kg | – | –
3 | O=C(c1ccc(F)cc1)c1cnn2c(-c3ccncc3)ccnc12 [(4-Fluorophenyl)[7-(4-pyridinyl)pyrazolo[1,5-a]pyrimidin-3-yl]methanone] | 100% | Active | – | 6 mg/kg | 48.9 mg/kg | 98 mg/kg | –
4 | O=C(c1ccco1)c1cnn2c(-c3cccnc3)ccnc12 [2-Furanyl[7-(3-pyridinyl)pyrazolo[1,5-a]pyrimidin-3-yl]methanone] | 100% | Active | 72% | 32 mg/kg | 500 mg/kg | 167 mg/kg | –
5 | Cc1ccc(C(=O)c2cnn3c(-c4cccnc4)ccnc23)cc1 [(4-Methylphenyl)[7-(3-pyridinyl)pyrazolo[1,5-a]pyrimidin-3-yl]methanone] | 100% | Active | 56% | – | 13.2 mg/kg | 11.1 mg/kg | –
6 | O=C(c1ccccc1)c1cnn2c(-c3cccnc3)ccnc12 [Phenyl[7-(3-pyridinyl)pyrazolo[1,5-a]pyrimidin-3-yl]methanone] | 100% | Active | 45% | 16 mg/kg | 51.4 mg/kg | 68.5 mg/kg | –
7 | O=C(c1ccccc1)c1cnn2c(-c3ccncc3)ccnc12 [phenyl[7-(4-pyridinyl)pyrazolo[1,5-a]pyrimidin-3-yl]methanone] | 100% | Active | – | 8 mg/kg | 21.2 mg/kg | 9.9 mg/kg | –
8 | O=C(c1ccccc1)c1cnn2c(-c3cccc(C(F)(F)F)c3)ccnc12 [phenyl[7-[3-(trifluoromethyl)phenyl]pyrazolo[1,5-a]pyrimidin-3-yl]methanone] | 100% | Active | 93% | – | 5.5 mg/kg | 5.5 mg/kg | –
9 | O=C(c1ccco1)c1cnn2c(-c3cccc(C(F)(F)F)c3)ccnc12 [2-furanyl[7-[3-(trifluoromethyl)phenyl]pyrazolo[1,5-a]pyrimidin-3-yl]methanone] | 100% | Active | 98% | 32 mg/kg | – | – | –
10 | O=C(c1ccccn1)c1cnn2c(-c3cccc(C(F)(F)F)c3)ccnc12 [2-pyridinyl[7-[3-(trifluoromethyl)phenyl]pyrazolo[1,5-a]pyrimidin-3-yl]methanone] | 100% | Active | 93% | – | 7 mg/kg | 6.9 mg/kg | –
11 | COc1ccc(C(=O)c2cnn3c(-c4cccnc4)ccnc23)cc1 [(4-Methoxyphenyl)[7-(3-pyridinyl)pyrazolo[1,5-a]pyrimidin-3-yl]methanone] | 100% | – | – | – | 10.5 mg/kg | 11.9 mg/kg | Active
12 | COc1ccc(C(=O)c2cnn3c(-c4cccnc4)ccnc23)cc1OC [(3,4-dimethoxyphenyl)[7-(3-pyridinyl)pyrazolo[1,5-a]pyrimidin-3-yl]methanone] | 87% | Active | 75% | – | – | – | –
